In ChEMBL document CHEMBL1142377, “Discovery of a novel class of 1,3-dioxane-2-carboxylic acid derivatives as subtype-selective peroxisome proliferator-activated receptor alpha (PPARalpha) agonists” (Bioorg Med Chem Lett, 2008):
One block for each compound: values may come before it.

Legend:
[1] = molecular target: T1, Peroxisome proliferator-activated receptor alpha (Homo sapiens, UniProt Q07869); experiment: Agonist activity at human PPARalpha expressed in monkey CV1 cells by transactivation assay; type: functional, cell-based, CV-1
T1 sequence (Q07869 whole entry): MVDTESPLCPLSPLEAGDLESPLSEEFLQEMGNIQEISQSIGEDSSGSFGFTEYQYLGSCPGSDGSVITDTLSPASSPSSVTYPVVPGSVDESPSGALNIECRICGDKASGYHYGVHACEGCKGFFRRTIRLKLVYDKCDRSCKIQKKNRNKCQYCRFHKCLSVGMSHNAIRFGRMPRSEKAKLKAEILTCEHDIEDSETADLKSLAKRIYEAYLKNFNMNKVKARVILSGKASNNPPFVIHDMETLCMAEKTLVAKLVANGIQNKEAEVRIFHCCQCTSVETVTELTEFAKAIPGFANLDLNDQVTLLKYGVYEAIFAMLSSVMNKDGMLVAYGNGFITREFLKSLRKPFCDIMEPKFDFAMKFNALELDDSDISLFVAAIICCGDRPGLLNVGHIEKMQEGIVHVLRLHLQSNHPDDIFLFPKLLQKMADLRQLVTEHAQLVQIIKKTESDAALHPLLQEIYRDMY

[2] = molecular target: T2, Peroxisome proliferator-activated receptor gamma (Homo sapiens) (UniProt P37231); experiment: Agonist activity at human PPARgamma expressed in monkey CV1 cells at 10 uM by transactivation assay; type: functional, cell-based; details: CV-1
T2 sequence (whole entry): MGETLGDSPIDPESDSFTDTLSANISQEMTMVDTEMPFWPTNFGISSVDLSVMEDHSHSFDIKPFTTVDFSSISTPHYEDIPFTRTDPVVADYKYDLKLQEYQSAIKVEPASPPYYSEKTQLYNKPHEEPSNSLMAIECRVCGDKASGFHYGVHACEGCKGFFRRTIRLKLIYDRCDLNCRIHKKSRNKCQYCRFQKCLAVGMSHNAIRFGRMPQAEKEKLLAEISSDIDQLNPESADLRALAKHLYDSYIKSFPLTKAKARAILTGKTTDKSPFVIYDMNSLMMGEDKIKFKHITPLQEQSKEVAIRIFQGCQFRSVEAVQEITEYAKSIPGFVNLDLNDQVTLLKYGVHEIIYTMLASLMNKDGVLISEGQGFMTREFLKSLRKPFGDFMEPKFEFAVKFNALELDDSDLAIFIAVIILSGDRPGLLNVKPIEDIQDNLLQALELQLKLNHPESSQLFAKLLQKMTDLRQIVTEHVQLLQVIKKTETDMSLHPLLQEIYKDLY

[3] = molecular target: T3, Peroxisome proliferator-activated receptor delta (Homo sapiens) (UniProt Q03181); experiment: Agonist activity at human PPARdelta expressed in monkey CV1 cells at 10 uM by transactivation assay; type: functional, cell-based; details: CV-1
T3 sequence (whole entry): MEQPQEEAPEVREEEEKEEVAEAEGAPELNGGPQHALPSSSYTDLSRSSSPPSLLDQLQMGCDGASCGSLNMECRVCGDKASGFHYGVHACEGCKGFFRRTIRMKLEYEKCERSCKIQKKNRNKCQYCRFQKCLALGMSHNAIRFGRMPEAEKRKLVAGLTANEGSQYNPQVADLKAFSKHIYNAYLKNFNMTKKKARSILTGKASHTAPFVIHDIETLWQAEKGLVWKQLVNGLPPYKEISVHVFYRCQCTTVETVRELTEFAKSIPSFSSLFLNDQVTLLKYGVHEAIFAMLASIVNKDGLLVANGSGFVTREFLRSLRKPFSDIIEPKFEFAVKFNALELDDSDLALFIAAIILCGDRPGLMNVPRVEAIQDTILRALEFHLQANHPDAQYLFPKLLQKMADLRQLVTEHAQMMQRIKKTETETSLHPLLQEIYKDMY

[4] = molecular target: T4, Peroxisome proliferator-activated receptor delta (Homo sapiens, UniProt Q03181); experiment: Agonist activity at human PPARdelta expressed in monkey CV1 cells by transactivation assay; type: functional, cell-based, CV-1
T4 sequence (Q03181 whole entry): T3 sequence (whole entry)

[5] = tested on: Mus musculus; experiment: Hypolipidemic effect on diabetic KKAy mouse model assessed as reduction of plasma triglyceride level at 1 mg/kg, po QD for 4 days; type: functional; design: scale not given: the % may be the effect or the level left
[6] = molecular target: T5, Peroxisome proliferator-activated receptor gamma (Homo sapiens, UniProt P37231)
T5 sequence (P37231 whole entry): T2 sequence (whole entry)

[7] = tested on: Mus musculus; experiment: (§1) Hypolipidemic effect on diabetic KKAy mouse model assessed as increase in HDL cholesterol level at 3 mg/kg, po QD for 4 days; type: functional
[8] = tested on: Mus musculus; experiment: as §1; type: functional; remark: listed apart in the source
[9] = molecular target: T6, Peroxisome proliferator-activated receptor gamma (Mus musculus) (UniProt P37238); experiment: Agonist activity at mouse PPARgamma at 10 uM by transactivation assay; type: functional
T6 sequence (whole entry): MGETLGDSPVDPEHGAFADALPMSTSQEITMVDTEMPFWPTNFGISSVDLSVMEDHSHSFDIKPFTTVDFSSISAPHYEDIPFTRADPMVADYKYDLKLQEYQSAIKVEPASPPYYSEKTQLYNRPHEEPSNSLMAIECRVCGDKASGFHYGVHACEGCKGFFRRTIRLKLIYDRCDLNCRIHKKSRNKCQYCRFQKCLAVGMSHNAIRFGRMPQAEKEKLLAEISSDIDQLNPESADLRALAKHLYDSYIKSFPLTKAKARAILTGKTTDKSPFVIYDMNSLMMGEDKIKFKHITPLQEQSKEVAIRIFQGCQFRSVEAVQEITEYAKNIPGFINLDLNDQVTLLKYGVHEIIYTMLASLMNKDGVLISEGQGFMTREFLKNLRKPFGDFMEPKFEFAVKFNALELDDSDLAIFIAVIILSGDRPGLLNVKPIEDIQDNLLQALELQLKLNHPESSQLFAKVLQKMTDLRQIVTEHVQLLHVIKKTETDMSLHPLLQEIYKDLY

[10] = molecular target: T7, Peroxisome proliferator-activated receptor delta (Mus musculus) (UniProt P35396); experiment: Agonist activity at mouse PPARdelta at 10 uM by transactivation assay; type: functional
T7 sequence (whole entry): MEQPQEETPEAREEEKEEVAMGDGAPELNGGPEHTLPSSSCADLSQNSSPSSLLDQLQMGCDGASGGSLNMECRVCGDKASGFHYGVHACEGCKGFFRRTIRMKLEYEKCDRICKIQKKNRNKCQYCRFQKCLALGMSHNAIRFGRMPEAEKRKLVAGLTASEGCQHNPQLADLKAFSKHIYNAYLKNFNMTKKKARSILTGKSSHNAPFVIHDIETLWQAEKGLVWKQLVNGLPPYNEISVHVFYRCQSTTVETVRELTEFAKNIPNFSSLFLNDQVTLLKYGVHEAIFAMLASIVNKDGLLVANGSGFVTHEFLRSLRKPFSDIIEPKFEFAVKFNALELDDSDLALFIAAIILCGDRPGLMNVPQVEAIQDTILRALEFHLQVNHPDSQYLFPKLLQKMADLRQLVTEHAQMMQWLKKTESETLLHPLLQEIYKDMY

[11] = species: Homo sapiens; experiment: Selectivity of human PPARalpha over human PPARdelta
[12] = species: Homo sapiens; experiment: Selectivity of human PPARalpha over human PPARgamma
[13] = tested on: Mus musculus; experiment: Hypolipidemic effect on diabetic KKAy mouse model assessed as reduction of plasma triglyceride level at 3 mg/kg, po QD for 4 days; type: functional; design: scale not given: the % may be the effect or the level left
[14] = tested on: Mus musculus; experiment: Hypoglycemic effect on diabetic KKAy mouse model assessed as reduction of plasma glucose level at 1 mg/kg, po QD for 4 days; type: functional; design: scale not given: the % may be the effect or the level left
[15] = tested on: Mus musculus; experiment: Hypoglycemic effect on diabetic KKAy mouse model assessed as reduction of plasma glucose level at 3 mg/kg, po QD for 4 days; type: functional; design: scale not given: the % may be the effect or the level left
[16] = tested on: Mus musculus; experiment: Hypolipidemic effect on diabetic KKAy mouse model assessed as reduction of VLDL cholesterol level at 1 mg/kg, po QD for 4 days; type: functional; design: scale not given: the % may be the effect or the level left
[17] = tested on: Mus musculus; experiment: Hypolipidemic effect on diabetic KKAy mouse model assessed as reduction of VLDL cholesterol level at 3 mg/kg, po QD for 4 days; type: functional; design: scale not given: the % may be the effect or the level left
[18] = molecular target: T8, Peroxisome proliferator-activated receptor alpha (Homo sapiens) (UniProt Q07869); experiment: Agonist activity at human PPARalpha expressed in monkey CV1 cells at 10 uM by transactivation assay; type: functional, cell-based; details: CV-1
T8 sequence (whole entry): T1 sequence (Q07869 whole entry)

[19] = molecular target: T9, Peroxisome proliferator-activated receptor alpha (Mus musculus, UniProt P23204); experiment: Agonist activity at mouse PPARalpha by transactivation assay; type: functional
T9 sequence (P23204 whole entry): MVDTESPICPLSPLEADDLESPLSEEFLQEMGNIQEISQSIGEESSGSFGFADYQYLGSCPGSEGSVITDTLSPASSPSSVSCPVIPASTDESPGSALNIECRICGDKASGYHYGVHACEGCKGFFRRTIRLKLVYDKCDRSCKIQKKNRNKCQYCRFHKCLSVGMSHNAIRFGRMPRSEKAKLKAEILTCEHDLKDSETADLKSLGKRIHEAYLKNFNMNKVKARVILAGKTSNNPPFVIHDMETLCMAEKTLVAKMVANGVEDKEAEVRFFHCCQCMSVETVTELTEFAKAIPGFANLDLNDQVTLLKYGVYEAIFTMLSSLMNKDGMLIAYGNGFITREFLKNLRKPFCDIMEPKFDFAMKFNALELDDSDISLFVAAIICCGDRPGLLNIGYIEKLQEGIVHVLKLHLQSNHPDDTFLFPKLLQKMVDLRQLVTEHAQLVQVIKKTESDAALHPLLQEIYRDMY

[20] = molecular target: T10, Peroxisome proliferator-activated receptor gamma (Mus musculus, UniProt P37238); experiment: Agonist activity at mouse PPARgamma by transactivation assay; type: functional
T10 sequence (P37238 whole entry): T6 sequence (whole entry)

[21] = tested on: Mus musculus; experiment: Hypolipidemic effect on diabetic KKAy mouse model assessed as reduction of VLDL cholesterol level at 300 mg/kg, po QD for 4 days; type: functional; design: scale not given: the % may be the effect or the level left
[22] = tested on: Mus musculus; experiment: Hypolipidemic effect on diabetic KKAy mouse model assessed as increase in HDL cholesterol level at 300 mg/kg, po QD for 4 days; type: functional
[23] = tested on: Mus musculus; experiment: Hypolipidemic effect on diabetic KKAy mouse model assessed as reduction of plasma triglyceride level at 300 mg/kg, po QD for 4 days; type: functional; design: scale not given: the % may be the effect or the level left
[24] = tested on: Mus musculus; experiment: Hypoglycemic effect on diabetic KKAy mouse model assessed as reduction of plasma glucose level at 300 mg/kg, po QD for 4 days; type: functional; design: scale not given: the % may be the effect or the level left

Compound: Cc1oc(-c2ccccc2)nc1Cc1cccc([C@H]2CO[C@@](C)(C(=O)O)OC2)c1
EC50 [1]: 3 µM | Activity [2]: 12% | Activity [3]: 7%

Compound: Cc1oc(-c2ccccc2)nc1CCCCCCOC(C)(C)C(=O)O
EC50 [4]: 30 µM | Activity [5]: 32% | EC50 [6]: 0.3 µM

Compound: Cc1oc(-c2ccccc2)nc1Cc1ccc(C[C@H]2CO[C@@](C)(C(=O)O)OC2)cc1
EC50 [1]: 3 µM | Activity [3]: 38% | EC50 [6]: 3 µM

Compound: Cc1oc(-c2ccccc2)nc1Cc1ccc([C@H]2CO[C@@](C)(C(=O)O)OC2)cc1
Activity [18]: 5% | Activity [2]: 10% | Activity [3]: 0%

Compound: Cc1oc(-c2ccccc2)nc1CCCCC[C@H]1CO[C@@](C)(C(=O)O)OC1
EC50 [1]: 0.1 µM | Activity [3]: 34% | EC50 [6]: 0.3 µM

Compound: CC(C)(Oc1ccc(CCNC(=O)c2ccc(Cl)cc2)cc1)C(=O)O [BEZAFIBRATE]
EC50 [6]: 100 µM

Compound: CC(C)OC(=O)C(C)(C)Oc1ccc(C(=O)c2ccc(Cl)cc2)cc1 [FENOFIBRATE]
Activity [21]: 31% | Activity [22]: 17% | Activity [23]: 40% | Activity [24]: 25%

Further lines, with some results ahead:

EC50 [1]: 0.03 µM | Activity [3]: 6% | EC50 [6]: 10 µM
Compound: Cc1oc(-c2ccccc2)nc1CCCC[C@H]1CO[C@@](CC(C)C)(C(=O)O)OC1

Activity [3]: 0% | Activity [9]: 21% | Activity [10]: 6% | Ratio EC50 [11]: > 300 | Ratio EC50 [12]: > 300
Compound: Cc1oc(-c2ccccc2)nc1CCCC[C@H]1CO[C@@](C)(C(=O)O)OC1
Activity [5]: 46% | Activity [7]: 36% | Activity [8]: 55% | Activity [13]: 56% | Activity [14]: 12% | Activity [15]: 13% | Activity [16]: 29% | Activity [17]: 49%

Activity [18]: 8% | Activity [2]: 0% | Activity [3]: 3%
Compound: Cc1oc(-c2ccccc2)nc1CCCC[C@H]1CO[C@@H](C(=O)O)OC1

EC50 [1]: 0.03 µM | Activity [3]: 19% | EC50 [19]: 0.1 µM | EC50 [20]: 10 µM | Activity [10]: 7% | EC50 [6]: 10 µM
Compound: CC[C@]1(C(=O)O)OC[C@@H](CCCCc2nc(-c3ccccc3)oc2C)CO1
Activity [8]: 5% | Activity [13]: 52% | Activity [15]: 18% | Activity [17]: 26%

EC50 [1]: 3 µM | Activity [3]: 28% | EC50 [6]: 1 µM
Compound: Cc1oc(-c2ccccc2)nc1Cc1cccc(C[C@H]2CO[C@@](C)(C(=O)O)OC2)c1

Activity [18]: 8% | Activity [2]: 2% | Activity [3]: 12%
Compound: Cc1oc(-c2ccccc2)nc1CCC[C@H]1CO[C@@](C)(C(=O)O)OC1

EC50 [1]: 3 µM | Activity [3]: 10% | EC50 [6]: 30 µM
Compound: Cc1oc(-c2ccccc2)nc1CCCC[C@H]1CO[C@](C)(C(=O)O)OC1
